Reference: ChEMBL document CHEMBL3885861, “Open TG-GATES”

Species: Rattus norvegicus
Assay: Open TG-GATES - Regimen: Single
Format: toxicity, organism-based, Sprague-Dawley
Parameters: regimen Single, gender Male, age 6 weeks
Conditions: in vivo, po, 40 mg/kg, route gavage, dose level Low; for APTT / Bas / Eos / Fbg / Hb / Ht / Lym / MCH / MCHC / MCV / Mono / Neu / PT / Plat / RBC / Ret / WBC: tissue Blood; for KIDNEY_L / KIDNEY_R / KIDNEY_TOTAL: tissue Kidney; for LIVER: tissue Liver; for A/G / ALP / ALT / AST / BUN / CRE / Ca / Cl / DBIL / GLC / IP / K / LDH / Na / PL / RALB / TBIL / TC / TG / TP / gamma-GTP: tissue Plasma

With Cc1cccc(C)c1OCC(C)N (configuration not stated) [MEXILETINE] the TERMINAL_BW (3 h) was 218.4 g, the APTT (3 h) was 20.9 s and the Bas (3 h) was 0%. The Eos (3 h) was 0.4%, the Fbg (3 h) was 302.8 mg/dL and the Hb (3 h) was 13.1 g/dL. It also gave a Ht (3 h) of 40.8%, a Lym (3 h) of 80.4% and an MCH (3 h) of 20.6 pg. For the same compound, the MCHC (3 h) was 32.1%, the MCV (3 h) was 64.2 fL and the Mono (3 h) was 2.2%. For the same compound, the Neu (3 h) was 16%, the PT (3 h) was 15.9 s and the Plat (3 h) was 119 x10_4/uL. For the same compound, the RBC (3 h) was 634.2 x10_4/ul, the Ret (3 h) was 7.8% and the WBC (3 h) was 92.2 x10_2/uL. It also gave a KIDNEY_L (3 h) of 1 g, a KIDNEY_R (3 h) of 1 g and a KIDNEY_TOTAL (3 h) of 1.9 g. For the same compound, the LIVER (3 h) was 10.2 g, the A/G (3 h) was 1.2 and the ALP (3 h) was 1641.6 IU/L. It also gave an ALT (3 h) of 51 IU/L, an AST (3 h) of 79.6 IU/L and a BUN (3 h) of 13.6 mg/dL. The CRE (3 h) was 0.2 mg/dL, the Ca (3 h) was 10.7 mg/dL and the Cl (3 h) was 105.6 meq/L. The DBIL (3 h) was 0 mg/dL, the GLC (3 h) was 188.8 mg/dL and the IP (3 h) was 8.8 mg/dL. It also gave a K (3 h) of 4 meq/L, an LDH (3 h) of 207.4 IU/L and a Na (3 h) of 142.4 meq/L. It also gave a PL (3 h) of 149.2 mg/dL, an RALB (3 h) of 3 g/dL and a TBIL (3 h) of 0.01 mg/dL. It also gave a TC (3 h) of 84.4 mg/dL, a TG (3 h) of 67.6 mg/dL and a TP (3 h) of 5.5 g/dL. For the same compound, the gamma-GTP (3 h) was 1.2 IU/L, the TERMINAL_BW (6 h) was 214 g and the APTT (6 h) was 23.3 s. It also gave a Bas (6 h) of 0%, an Eos (6 h) of 0.8% and a Fbg (6 h) of 314 mg/dL. The Hb (6 h) was 13.5 g/dL, the Ht (6 h) was 40.8% and the Lym (6 h) was 83.6%. It also gave an MCH (6 h) of 20.9 pg, an MCHC (6 h) of 33.2% and an MCV (6 h) of 63 fL. It also gave a Mono (6 h) of 2.6%, a Neu (6 h) of 11.4% and a PT (6 h) of 16 s. For the same compound, the Plat (6 h) was 118.1 x10_4/uL, the RBC (6 h) was 647.4 x10_4/ul and the Ret (6 h) was 7.2%. It also gave a WBC (6 h) of 88.1 x10_2/uL, a KIDNEY_L (6 h) of 0.9 g and a KIDNEY_R (6 h) of 0.9 g. It also gave a KIDNEY_TOTAL (6 h) of 1.8 g, an LIVER (6 h) of 9.2 g and an A/G (6 h) of 1.2. It also gave an ALP (6 h) of 1364.6 IU/L, an ALT (6 h) of 43 IU/L and an AST (6 h) of 72.8 IU/L. The BUN (6 h) was 10.4 mg/dL, the CRE (6 h) was 0.2 mg/dL and the Ca (6 h) was 10.6 mg/dL. It also gave a Cl (6 h) of 105.6 meq/L, a DBIL (6 h) of 0 mg/dL and a GLC (6 h) of 180.8 mg/dL. The IP (6 h) was 8.5 mg/dL, the K (6 h) was 4.2 meq/L and the LDH (6 h) was 153.4 IU/L. The Na (6 h) was 141 meq/L, the PL (6 h) was 128.8 mg/dL and the RALB (6 h) was 3 g/dL. The TBIL (6 h) was 0.022 mg/dL, the TC (6 h) was 69 mg/dL and the TG (6 h) was 68 mg/dL. The TP (6 h) was 5.5 g/dL, the gamma-GTP (6 h) was 1.4 IU/L and the TERMINAL_BW (9 h) was 217.2 g. The APTT (9 h) was 22.4 s, the Bas (9 h) was 0% and the Eos (9 h) was 0.6%. For the same compound, the Fbg (9 h) was 293.8 mg/dL, the Hb (9 h) was 12.7 g/dL and the Ht (9 h) was 39.7%. The Lym (9 h) was 73.6%, the MCH (9 h) was 20.3 pg and the MCHC (9 h) was 32%. It also gave an MCV (9 h) of 63.6 fL, a Mono (9 h) of 2.6% and a Neu (9 h) of 22%. The PT (9 h) was 16.2 s, the Plat (9 h) was 106.8 x10_4/uL and the RBC (9 h) was 624.6 x10_4/ul. For the same compound, the Ret (9 h) was 8.1%, the WBC (9 h) was 122.3 x10_2/uL and the KIDNEY_L (9 h) was 0.9 g. For the same compound, the KIDNEY_R (9 h) was 0.9 g, the KIDNEY_TOTAL (9 h) was 1.9 g and the LIVER (9 h) was 9.3 g. It also gave an A/G (9 h) of 1.2, an ALP (9 h) of 1650.8 IU/L and an ALT (9 h) of 40.2 IU/L. For the same compound, the AST (9 h) was 65.2 IU/L, the BUN (9 h) was 11.6 mg/dL and the CRE (9 h) was 0.2 mg/dL. For the same compound, the Ca (9 h) was 10.4 mg/dL, the Cl (9 h) was 106.2 meq/L and the DBIL (9 h) was 0.002 mg/dL. The GLC (9 h) was 192.2 mg/dL, the IP (9 h) was 9.6 mg/dL and the K (9 h) was 4.2 meq/L. For the same compound, the LDH (9 h) was 127.2 IU/L, the Na (9 h) was 140.6 meq/L and the PL (9 h) was 129.6 mg/dL. For the same compound, the RALB (9 h) was 3 g/dL, the TBIL (9 h) was 0.022 mg/dL and the TC (9 h) was 71.4 mg/dL. The TG (9 h) was 77 mg/dL, the TP (9 h) was 5.5 g/dL and the gamma-GTP (9 h) was 1.2 IU/L. It also gave a TERMINAL_BW (24 h) of 232.2 g, an APTT (24 h) of 20.7 s and a Bas (24 h) of 0%. For the same compound, the Eos (24 h) was 1.4%, the Fbg (24 h) was 297.2 mg/dL and the Hb (24 h) was 12.3 g/dL. It also gave a Ht (24 h) of 38.5%, a Lym (24 h) of 80.2% and an MCH (24 h) of 19.9 pg. For the same compound, the MCHC (24 h) was 31.9%, the MCV (24 h) was 62.6 fL and the Mono (24 h) was 2.6%. The Neu (24 h) was 16%, the PT (24 h) was 16.5 s and the Plat (24 h) was 114.4 x10_4/uL. It also gave an RBC (24 h) of 616.2 x10_4/ul, a Ret (24 h) of 7.5% and a WBC (24 h) of 87.8 x10_2/uL. The KIDNEY_L (24 h) was 1 g, the KIDNEY_R (24 h) was 1 g and the KIDNEY_TOTAL (24 h) was 2 g. The LIVER (24 h) was 10.5 g, the A/G (24 h) was 1.2 and the ALP (24 h) was 1448.8 IU/L. The ALT (24 h) was 44.6 IU/L, the AST (24 h) was 73.4 IU/L and the BUN (24 h) was 15.8 mg/dL. It also gave a CRE (24 h) of 0.2 mg/dL, a Ca (24 h) of 10.8 mg/dL and a Cl (24 h) of 105.6 meq/L. The DBIL (24 h) was 0 mg/dL, the GLC (24 h) was 184.2 mg/dL and the IP (24 h) was 7.6 mg/dL. It also gave a K (24 h) of 4.1 meq/L, an LDH (24 h) of 158.6 IU/L and a Na (24 h) of 141.8 meq/L. For the same compound, the PL (24 h) was 140 mg/dL, the RALB (24 h) was 3.1 g/dL and the TBIL (24 h) was 0.01 mg/dL. It also gave a TC (24 h) of 79 mg/dL, a TG (24 h) of 89.8 mg/dL and a TP (24 h) of 5.5 g/dL. The gamma-GTP (24 h) was 1.6 IU/L.
